For 14 compounds, IC50 results are on record in patent publication US20230322767A1, “ARYL SUBSTITUTED PYRROLO-PYRIDINONES AND THERAPEUTIC USES THEREOF” (Bayer Aktiengesellschaft, priority 2020, published 2023).

Format in all cases: biochemical
One assay deals with CSNK1A1 (Homo sapiens (Human), UniProt P48729). The experiment in a line: CSNK1A1 Assay 2 (ADP-Glo, 1 μM ATP). Particulars: median, read-out: CSNK1A1 Assay 2 IC50 [mol/l] (median). As for the experimental part: CSNK1A1-inhibitory activity of compounds of the present invention in presence of 1 μM adenosine-tri-phosphate (ATP) was quantified employing the CSNK1A1 assay as described in the following paragraphs. In essence, the enzyme activity is measured by quantification of the adenosine-di-phosphate (ADP), which is generated as a co-product of the enzyme reaction, via the “ADP-Glo™ Kinase Assay” kit from the company Promega. This detection system works as follows: In a first step the ATP not consumed in the kinase reaction is quantitatively converted to cAMP employing an adenylate cyclase (“ADP-Glo-reagent”), then the adenylate cyclase is stopped and the ADP generated in the kinase reaction converted to ATP which generates in a luciferase-based reaction a glow-luminescence signal (“Kinase Detection Reagent”).
Chain of CSNK1A1 (P48729 whole entry): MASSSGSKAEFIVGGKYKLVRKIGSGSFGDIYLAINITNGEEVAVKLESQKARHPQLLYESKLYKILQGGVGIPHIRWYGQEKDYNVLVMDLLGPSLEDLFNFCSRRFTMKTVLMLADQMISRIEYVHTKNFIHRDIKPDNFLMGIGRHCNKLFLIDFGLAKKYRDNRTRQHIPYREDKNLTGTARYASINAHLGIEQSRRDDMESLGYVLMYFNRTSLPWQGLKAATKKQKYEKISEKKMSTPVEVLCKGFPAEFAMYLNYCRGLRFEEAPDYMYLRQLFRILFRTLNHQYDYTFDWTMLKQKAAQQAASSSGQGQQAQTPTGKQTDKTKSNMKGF
As substrate for the kinase reaction the biotinylated peptide biotin-Ahx-KRRRAL-pS-VASLPGL (C-terminus in amide form) was used which can be purchased e.g. from the company Biosyntan (Berlin-Buch, Germany).
For the assay 50 nl of a 100 fold concentrated solution of the test compound in DMSO was pipetted into a white 1536-well microtiter plate (Greiner Bio-One, Frickenhausen, Germany), 2 μL of a solution of CSNK1A1 in aqueous assay buffer [50 mM HEPES pH 7.5, 10% (v/v) glycerol, 10 mM MgCl2, 50 mM NaCl, 1 mM dithiothreitol, 0.01% (w/v) bovine serum albumin, 0.01% (v/v) Triton X-100] were added and the mixture was incubated for 15 min at 22° C. to allow pre-binding of the test compounds to the enzyme before the start of the kinase reaction. […] The concentration of CSNK1A1 was adjusted depending of the activity of the enzyme lot and was chosen appropriate to have the assay in the linear range, a typical concentrations are about 0.0375 ng/μL. The reaction was stopped by the addition of 2.5 μL of “ADP-Glo-reagent” (1:1.5 fold diluted with water) and the resulting mixture was incubated at 22° C. for 1 h to convert the ATP not consumed in the kinase reaction completely […]. Subsequently 2.5 μL of the “kinase detection reagent” (1.2 fold more concentrated than recommended by the producer) were added, the resulting mixture was incubated at 22° C. for 1 h and then the luminescence measured with a suitable measurement instrument (e.g. Viewlux™ from Perkin-Elmer). The amount of emitted light was taken as a measure for the amount of ADP generated and thereby for the activity of the CSNK1A1.
In general terms: ADP-Glo turns the ADP formed in a reaction into a luminescent signal.

For a further assay, the target named is CSNK1D (Homo sapiens (Human), UniProt P48730). The experiment in a line: CSNK1D Assay (ADP-Glo, 1 μM ATP). The note with it: median, read-out: CSNK1D IC50 [mol/l] (median). As for the experimental part: CSNK1D-inhibitory activity of compounds of the present invention in presence of 1 μM adenosine-tri-phosphate (ATP) was quantified employing the CSNK1 D assay as described in the following paragraphs. In essence, the enzyme activity is measured by quantification of the adenosine-di-phosphate (ADP), which is generated as a co-product of the enzyme reaction, via the “ADP-Glo™ Kinase Assay” kit from the company Promega. This detection system works as follows: In a first step the ATP not consumed in the kinase reaction is quantitatively converted to cAMP employing an adenylate cyclase (“ADP-Glo-reagent”), then the adenylate cyclase is stopped and the ADP generated in the kinase reaction converted to ATP which generates in a luciferase-based reaction a glow-luminescence signal (“Kinase Detection Reagent”).
Chain of CSNK1D (P48730 whole entry): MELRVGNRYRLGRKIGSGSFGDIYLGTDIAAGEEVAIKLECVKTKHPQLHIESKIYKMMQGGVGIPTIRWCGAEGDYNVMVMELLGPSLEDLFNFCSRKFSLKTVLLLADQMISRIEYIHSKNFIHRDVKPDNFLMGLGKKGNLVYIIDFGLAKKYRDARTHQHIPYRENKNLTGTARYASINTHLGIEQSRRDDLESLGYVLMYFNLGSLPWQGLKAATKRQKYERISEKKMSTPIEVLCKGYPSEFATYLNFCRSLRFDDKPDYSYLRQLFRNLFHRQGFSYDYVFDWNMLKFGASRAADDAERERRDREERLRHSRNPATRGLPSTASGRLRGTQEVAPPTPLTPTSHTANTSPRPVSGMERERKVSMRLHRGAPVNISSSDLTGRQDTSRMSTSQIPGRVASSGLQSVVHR
As substrate for the kinase reaction the biotinylated peptide Btn-Ahx-[…] (C-terminus in amide form) was used which can be purchased e.g. from the company Biosyntan (Berlin-Buch, Germany).
For the assay 50 nl of a 100 fold concentrated solution of the test compound in DMSO was pipetted into a white 1536-well microtiter plate (Greiner Bio-One, Frickenhausen, Germany), 2 μL of a solution of CSNK1D in aqueous assay buffer [50 mM HEPES pH 7.5, 10% (v/v) glycerol, 10 mM MgCl2, 50 mM NaCl, 1 mM dithiothreitol, 0.01% (w/v) bovine serum albumin, 0.01% (v/v) Triton X-100] were added and the mixture was incubated for 15 min at 22° C. to allow pre-binding of the test compounds to the enzyme before the start of the kinase reaction. […] The concentration of CSNK1D was adjusted depending of the activity of the enzyme lot and was chosen appropriate to have the assay in the linear range, a typical concentration is about 0.5 ng/μL. The reaction was stopped by the addition of 2.5 μL of “ADP-Glo-reagent” (1:1.5 fold diluted with water) and the resulting mixture was incubated at 22° C. for 1 h to convert the ATP not consumed in the kinase reaction completely […]. Subsequently 2.5 μL of the “kinase detection reagent” (1.2 fold more concentrated than recommended by the producer) were added, the resulting mixture was incubated at 22° C. for 1 h and then the luminescence measured with a suitable measurement instrument (e.g. Viewlux™ from Perkin-Elmer). The amount of emitted light was taken as a measure for the amount of ADP generated and thereby for the activity of the CSNK1D.

Assay [1] addresses wild-type Epidermal Growth Factor Receptor (EGFR) (Homo sapiens (Human), UniProt P00533). The experiment in a line: WT-EGFR Kinase Assay (TR-FRET, 2 mM ATP). Particulars: EGFR Wildtyp 2 mM ATP IC50 [mol/l] (median), median or individual measurements. The essentials:
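TR-FRET read-out of biotinylated peptide phosphorylation, taken as the 665/622 nm ratio after EDTA stop and 1 h detection at 22° C. Kinase: GST fusion of human EGFR aa R669–A1210, given a 15 min compound pre-binding step; reaction run at 2 mM ATP.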
Background: In TR-FRET formats the signal depends on donor and acceptor labels being close together.

Chain of wild-type Epidermal Growth Factor Receptor (EGFR) (P00533 669-1210): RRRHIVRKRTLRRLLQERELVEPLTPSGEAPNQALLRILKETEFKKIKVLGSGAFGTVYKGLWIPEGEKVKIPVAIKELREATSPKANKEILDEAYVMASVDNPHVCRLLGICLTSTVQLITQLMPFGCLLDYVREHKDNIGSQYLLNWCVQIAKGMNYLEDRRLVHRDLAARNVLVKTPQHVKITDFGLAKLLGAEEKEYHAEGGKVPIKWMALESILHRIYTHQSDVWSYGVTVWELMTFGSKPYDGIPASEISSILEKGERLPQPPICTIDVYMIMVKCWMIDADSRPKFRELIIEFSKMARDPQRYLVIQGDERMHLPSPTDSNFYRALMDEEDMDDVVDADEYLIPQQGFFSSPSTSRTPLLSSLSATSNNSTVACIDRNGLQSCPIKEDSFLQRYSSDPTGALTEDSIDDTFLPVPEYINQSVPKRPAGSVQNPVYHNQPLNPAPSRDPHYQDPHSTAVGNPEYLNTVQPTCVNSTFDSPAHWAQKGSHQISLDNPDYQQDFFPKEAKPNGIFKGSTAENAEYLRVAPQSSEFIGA

For `Cc1cn(C)c(=O)c2c(-c3ccc(F)cc3)c(-c3ccnc(NC(=O)C(CC(F)F)c4ccc(F)cc4)c3)[nH]c12` (racemic) [Example 34, 4,4-difluoro-2-(4-fluorophenyl)-N-{4-[3-(4-fluorophenyl)-5,7-dimethyl-4-oxo-4,5-dihydro-1H-pyrrolo[3,2-c]pyridin-2-yl]pyridin-2-yl}butanamide], the IC50 is 5.8 nM at CSNK1A1 and 5.3 nM on CSNK1D.
The matching figures for `CC1CN(C)C(=O)c2c1[nH]c(-c1ccnc(NC(=O)C(C)c3ccc(F)cc3)c1)c2-c1ccc(F)cc1` (stereo not shown) [Example 29, 2-(4-fluorophenyl)-N-{4-[3-(4-fluorophenyl)-5,7-dimethyl-4-oxo-4,5,6,7-tetrahydro-1H-pyrrolo[3,2-c]pyridin-2-yl]pyridin-2-yl}propanamide]: 2.9 nM and 4.1 nM.
The matching figures for `Cn1cc(CC(F)(F)F)c2[nH]c(-c3ccnc(NC(=O)C(CC(F)F)c4ccc(F)cc4)c3)c(-c3ccc(F)cc3)c2c1=O` (single isomer, unassigned) [Example 28, 4,4-difluoro-2-(4-fluorophenyl)-N-{4-[3-(4-fluorophenyl)-5-methyl-4-oxo-7-(2,2,2-trifluoroethyl)-4,5-dihydro-1H-pyrrolo[3,2-c]pyridin-2-yl]pyridin-2-yl}butanamide]: 6.1 nM and 5 nM.
In the same order, the values of `CC(C(=O)Nc1cc(-c2[nH]c3c(CC4CC4)cn(C)c(=O)c3c2-c2ccc(F)cc2)ccn1)c1ccc(F)cc1` (racemic) [Example 63, N-{4-[7-(cyclopropylmethyl)-3-(4-fluorophenyl)-5-methyl-4-oxo-4,5-dihydro-1H-pyrrolo[3,2-c]pyridin-2-yl]pyridin-2-yl}-2-(4-fluorophenyl)propanamide] are 12 nM and 8 nM.
Take `CN1CCc2[nH]c(-c3ccnc(NC(=O)C(CC(F)F)c4ccc(F)cc4)c3)c(-c3cccnc3)c2C1=O` (racemic) [Example 9, 4,4-difluoro-2-(4-fluorophenyl)-N-{4-[5-methyl-4-oxo-3-(pyridin-3-yl)-4,5,6,7-tetrahydro-1H-pyrrolo[3,2-c]pyridin-2-yl]pyridin-2-yl}butanamide]: the figures for the IC50 on CSNK1A1 and at CSNK1D were 7.8 nM and 9.2 nM, respectively.
The matching figures for `CC(C(=O)Nc1cc(-c2[nH]c3c(CC(F)(F)F)cn(C)c(=O)c3c2-c2ccccc2)ccn1)c1ccc(F)cc1` (racemic) [Example 14, 2-(4-fluorophenyl)-N-{4-[5-methyl-4-oxo-3-phenyl-7-(2,2,2-trifluoroethyl)-4,5-dihydro-1H-pyrrolo[3,2-c]pyridin-2-yl]pyridin-2-yl}propanamide]: 4.7 nM and 2.7 nM.
`CC1CN(C)C(=O)c2c1[nH]c(-c1ccnc(NC(=O)C(CC(F)F)c3ccc(F)cc3)c1)c2-c1ccc(F)cc1` (stereo not shown) [Example 33, 4,4-difluoro-2-(4-fluorophenyl)-N-{4-[3-(4-fluorophenyl)-5,7-dimethyl-4-oxo-4,5,6,7-tetrahydro-1H-pyrrolo[3,2-c]pyridin-2-yl]pyridin-2-yl}butanamide]: the IC50 on CSNK1A1 and at CSNK1D was 4.3 nM throughout.
With `CN1CCc2[nH]c(-c3ccnc(NC(=O)C(CC(F)F)c4ccc(F)cc4)c3)c(-c3cccnc3)c2C1=O` (single isomer, unassigned) [Example 11, 4,4-difluoro-2-(4-fluorophenyl)-N-{4-[5-methyl-4-oxo-3-(pyridin-3-yl)-4,5,6,7-tetrahydro-1H-pyrrolo[3,2-c]pyridin-2-yl]pyridin-2-yl}butanamide], the IC50 on CSNK1A1 was 4.3 nM; on CSNK1D, 4.7 nM.
As to `CC(C(=O)Nc1cc(-c2[nH]c3c(c2-c2ccc(F)cc2)C(=O)N(C)CC3CC2CC2)ccn1)c1ccc(F)cc1` (stereo not shown) [Example 62, N-{4-[7-(cyclopropylmethyl)-3-(4-fluorophenyl)-5-methyl-4-oxo-4,5,6,7-tetrahydro-1H-pyrrolo[3,2-c]pyridin-2-yl]pyridin-2-yl}-2-(4-fluorophenyl)propanamide], the IC50 worked out at 7.6 nM on CSNK1A1 and 4 nM at CSNK1D.
In the same order, the values of `CN1CCc2[nH]c(-c3ccnc(NC(=O)C(CC(F)F)c4ccc(F)cc4)c3)c(-c3cccnc3)c2C1=O` (single isomer, unassigned) [Example 10, 4,4-difluoro-2-(4-fluorophenyl)-N-{4-[5-methyl-4-oxo-3-(pyridin-3-yl)-4,5,6,7-tetrahydro-1H-pyrrolo[3,2-c]pyridin-2-yl]pyridin-2-yl}butanamide] are 110 nM and 64 nM.
In the same order, the values of `CN1C(=O)c2c([nH]c(-c3ccnc(NC(=O)C(CC(F)F)c4ccc(F)cc4)c3)c2-c2ccccc2)CC12CCC2` (single isomer, unassigned; (-)) [Example 50, (−)-4,4-difluoro-2-(4-fluorophenyl)-N-[4-(5′-methyl-4′-oxo-3′-phenyl-1′,4′,5′,7′-tetrahydrospiro-[cyclobutane-1,6′-pyrrolo[3,2-c]pyridin]-2′-yl)pyridin-2-yl]butanamide] are 12 nM and 9.8 nM.
In the same order, the values of `CN1CCc2[nH]c(-c3ccnc(NC(=O)C(CC(F)F)c4ccc(F)cc4)c3)c(-c3ccccc3)c2C1=O` (single isomer, unassigned) [Example 3, 4,4-difluoro-2-(4-fluorophenyl)-N-[4-(5-methyl-4-oxo-3-phenyl-4,5,6,7-tetrahydro-1H-pyrrolo[3,2-c]pyridin-2-yl)pyridin-2-yl]butanamide] are 4.7 nM and 5.9 nM.
In the case of `Cn1cc(CC(F)(F)F)c2[nH]c(-c3ccnc(NC(=O)C(CC(F)F)c4ccc(F)cc4)c3)c(-c3ccc(F)cc3)c2c1=O` (racemic) [Example 26, 4,4-difluoro-2-(4-fluorophenyl)-N-{4-[3-(4-fluorophenyl)-5-methyl-4-oxo-7-(2,2,2-trifluoroethyl)-4,5-dihydro-1H-pyrrolo[3,2-c]pyridin-2-yl]pyridin-2-yl}butanamide], the IC50 on CSNK1A1 is 11 nM; at CSNK1D, 7.1 nM.
On to `O=C(Nc1cc(-c2[nH]c3cc[nH]c(=O)c3c2-c2ccccc2)ccn1)C(CC(F)F)c1ccc(F)cc1` (racemic) [Example 76, 4,4-difluoro-2-(4-fluorophenyl)-N-[4-(4-oxo-3-phenyl-4,5-dihydro-1H-pyrrolo[3,2-c]pyridin-2-yl)pyridin-2-yl]butanamide], for which the IC50 on CSNK1A1 is 2 nM; in assay [1] it was above 20000 nM.
